Results: ChEMBL document CHEMBL1149262, “Monoamine transporter binding, locomotor activity, and drug discrimination properties of 3-(4-substituted-phenyl)tropane-2-carboxylic acid methyl ester isomers” (J Med Chem, 2004)
Activity calls are given as the source filed them. No cut-off for these calls is given here.

What was measured:
Mus musculus [1] = assay: Activity in CD1 mouse assessed as hind limb splay at 100 mg/kg, ip after 4 hrs; assay type: functional, organism-based; set-up: dose 100 mg/kg; details: Hindlimb
Mus musculus [2] = assay: Activity in CD1 mouse assessed as ataxia at 100 mg/kg, ip after 4 hrs; assay type: functional, organism-based; set-up: dose 100 mg/kg
Mus musculus [3] = assay: Locomotor activity in CD1 mouse assessed as stimulation at 3 mg/kg, ip after 2 hrs relative to control; assay type: functional; details: route intraperitoneal
Rattus norvegicus [4] = assay: Drug discrimination effect in CD Albino rat assessed as percent of rat choosing cocaine lever at 17 mg/kg, ip; assay type: functional; details: route intraperitoneal
Mus musculus [5] = assay: Locomotor activity in CD1 mouse assessed as stimulation at 10 mg/kg, ip after 3 hrs relative to control; assay type: functional; details: route intraperitoneal
Rattus norvegicus [6] = assay: Drug discrimination effect in CD Albino rat assessed as percent of rat choosing cocaine lever at 5.6 mg/kg, ip; assay type: functional; details: route intraperitoneal
[7] = target: Sodium-dependent dopamine transporter (Homo sapiens, UniProt Q01959); assay: Displacement of [3H]WIN-35428 from DAT
Chain of Sodium-dependent dopamine transporter (Q01959 whole entry): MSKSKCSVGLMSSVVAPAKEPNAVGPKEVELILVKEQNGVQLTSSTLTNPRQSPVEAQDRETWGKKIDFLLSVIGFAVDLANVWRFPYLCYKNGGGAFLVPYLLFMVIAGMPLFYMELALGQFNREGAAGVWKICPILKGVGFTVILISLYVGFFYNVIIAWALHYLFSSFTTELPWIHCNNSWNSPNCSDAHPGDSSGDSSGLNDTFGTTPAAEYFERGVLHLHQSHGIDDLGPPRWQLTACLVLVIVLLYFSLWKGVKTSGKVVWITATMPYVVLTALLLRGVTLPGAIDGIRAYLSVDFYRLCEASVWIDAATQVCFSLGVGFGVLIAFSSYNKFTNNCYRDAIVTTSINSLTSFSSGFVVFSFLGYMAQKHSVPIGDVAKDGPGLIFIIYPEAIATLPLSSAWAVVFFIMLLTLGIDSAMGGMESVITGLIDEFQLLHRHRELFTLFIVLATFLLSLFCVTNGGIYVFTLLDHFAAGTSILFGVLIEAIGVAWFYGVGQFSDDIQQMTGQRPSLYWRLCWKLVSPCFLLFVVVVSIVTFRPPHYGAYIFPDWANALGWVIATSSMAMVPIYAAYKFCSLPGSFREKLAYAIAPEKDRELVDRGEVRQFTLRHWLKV

Mus musculus [8] = assay: Locomotor activity in CD1 mouse assessed as stimulation at 30 mg/kg, ip after 1 hr relative to control; assay type: functional; details: route intraperitoneal
Mus musculus [9] = assay: Activity in CD1 mouse assessed as convulsions at 100 mg/kg, ip after 4 hrs; assay type: functional, organism-based; set-up: dose 100 mg/kg
Rattus norvegicus [10] = assay: Drug discrimination effect in CD Albino rat assessed as percent of rat choosing cocaine lever at 10 mg/kg, ip; assay type: functional; details: route intraperitoneal
Mus musculus [11] = assay: Locomotor activity in CD1 mouse assessed as stimulation at 30 mg/kg, ip after 2 hrs relative to control; assay type: functional; details: route intraperitoneal
Mus musculus [12] = assay: Locomotor activity in CD1 mouse assessed as stimulation at 1 mg/kg, ip after 2 hrs relative to control; assay type: functional; details: route intraperitoneal
Rattus norvegicus [13] = assay: Cocaine discrimination in ip dosed CD Albino rat; assay type: functional
Mus musculus [14] = assay: Activity in CD1 mouse assessed as hypoactivity at 100 mg/kg, ip after 4 hrs; assay type: functional, organism-based; set-up: dose 100 mg/kg
Rattus norvegicus [15] = assay: Drug discrimination effect in CD Albino rat assessed as percent of rat choosing cocaine lever at 3 mg/kg, ip; assay type: functional; details: route intraperitoneal
Mus musculus [16] = assay: Locomotor activity in CD1 mouse assessed as stimulation at 1 mg/kg, ip after 4 hrs relative to control; assay type: functional; details: route intraperitoneal
Mus musculus [17] = assay: Locomotor activity in CD1 mouse assessed as stimulation at 3 mg/kg, ip after 3 hrs relative to control; assay type: functional; details: route intraperitoneal
Mus musculus [18] = assay: Locomotor activity in CD1 mouse assessed as stimulation at 10 mg/kg, ip after 2 hrs relative to control; assay type: functional; details: route intraperitoneal
Mus musculus [19] = assay: Locomotor activity in CD1 mouse assessed as stimulation at 3 mg/kg, ip after 4 hrs relative to control; assay type: functional; details: route intraperitoneal
Mus musculus [20] = assay: Locomotor activity in CD1 mouse assessed as stimulation at 10 mg/kg, ip after 4 hrs relative to control; assay type: functional; details: route intraperitoneal
[21] = target: Sodium-dependent noradrenaline transporter (Homo sapiens, UniProt P23975); assay: Displacement of [3H]nisoxetine from NET
Chain of Sodium-dependent noradrenaline transporter (P23975 whole entry): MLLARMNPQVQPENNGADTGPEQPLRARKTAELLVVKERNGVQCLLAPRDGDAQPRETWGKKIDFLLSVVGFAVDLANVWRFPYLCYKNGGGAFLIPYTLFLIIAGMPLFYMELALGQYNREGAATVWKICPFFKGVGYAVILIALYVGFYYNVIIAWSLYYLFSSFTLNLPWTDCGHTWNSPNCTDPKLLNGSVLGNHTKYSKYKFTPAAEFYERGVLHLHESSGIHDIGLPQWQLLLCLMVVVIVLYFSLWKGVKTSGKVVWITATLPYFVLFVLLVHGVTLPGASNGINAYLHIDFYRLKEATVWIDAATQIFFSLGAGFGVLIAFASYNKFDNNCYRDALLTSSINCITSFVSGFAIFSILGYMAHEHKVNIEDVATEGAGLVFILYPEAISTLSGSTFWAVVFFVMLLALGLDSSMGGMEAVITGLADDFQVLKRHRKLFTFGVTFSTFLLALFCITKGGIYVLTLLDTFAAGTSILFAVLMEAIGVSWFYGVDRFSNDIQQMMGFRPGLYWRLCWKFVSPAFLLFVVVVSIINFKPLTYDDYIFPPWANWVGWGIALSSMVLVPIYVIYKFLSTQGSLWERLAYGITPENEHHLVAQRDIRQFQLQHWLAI

Mus musculus [22] = assay: Locomotor activity in CD1 mouse assessed as stimulation at 30 mg/kg, ip after 3 hrs relative to control; assay type: functional; details: route intraperitoneal
Mus musculus [23] = assay: Activity in CD1 mouse assessed as circling at 100 mg/kg, ip after 4 hrs; assay type: functional, organism-based; set-up: dose 100 mg/kg
Mus musculus [24] = assay: Activity in CD1 mouse assessed as slight or intermittent stimulation at 10 mg/kg, ip after 4 hrs; assay type: functional, organism-based; set-up: dose 10 mg/kg
Mus musculus [25] = assay: Locomotor activity in CD1 mouse assessed as stimulation at 30 mg/kg, ip after 4 hrs relative to control; assay type: functional; details: route intraperitoneal
Mus musculus [26] = assay: Locomotor activity in CD1 mouse assessed as stimulation at 1 mg/kg, ip after 3 hrs relative to control; assay type: functional; details: route intraperitoneal
Mus musculus [27] = assay: Locomotor activity in CD1 mouse assessed as stimulation at 1 mg/kg, ip after 1 hr relative to control; assay type: functional; details: route intraperitoneal
Mus musculus [28] = assay: Locomotor activity in CD1 mouse assessed as stimulation at 3 mg/kg, ip after 1 hr relative to control; assay type: functional; details: route intraperitoneal
Mus musculus [29] = assay: Locomotor activity in CD1 mouse assessed as stimulation at 10 mg/kg, ip after 1 hr relative to control; assay type: functional; details: route intraperitoneal
Rattus norvegicus [30] = assay: Drug discrimination effect in CD Albino rat assessed as percent of rat choosing cocaine lever at 30 mg/kg, ip; assay type: functional; details: route intraperitoneal
Mus musculus [31] = assay: Locomotor activity in CD1 mouse assessed as stimulation at 0.03 mg/kg, ip after 1 hr relative to control; assay type: functional; details: route intraperitoneal
Mus musculus [32] = assay: Locomotor activity in CD1 mouse assessed as stimulation at 0.03 mg/kg, ip after 4 hrs relative to control; assay type: functional; details: route intraperitoneal
Mus musculus [33] = assay: Locomotor activity in CD1 mouse assessed as stimulation at 0.03 mg/kg, ip after 2 hrs relative to control; assay type: functional; details: route intraperitoneal
[34] = target: Sodium-dependent serotonin transporter (Homo sapiens, UniProt P31645)
Chain of Sodium-dependent serotonin transporter (P31645 whole entry): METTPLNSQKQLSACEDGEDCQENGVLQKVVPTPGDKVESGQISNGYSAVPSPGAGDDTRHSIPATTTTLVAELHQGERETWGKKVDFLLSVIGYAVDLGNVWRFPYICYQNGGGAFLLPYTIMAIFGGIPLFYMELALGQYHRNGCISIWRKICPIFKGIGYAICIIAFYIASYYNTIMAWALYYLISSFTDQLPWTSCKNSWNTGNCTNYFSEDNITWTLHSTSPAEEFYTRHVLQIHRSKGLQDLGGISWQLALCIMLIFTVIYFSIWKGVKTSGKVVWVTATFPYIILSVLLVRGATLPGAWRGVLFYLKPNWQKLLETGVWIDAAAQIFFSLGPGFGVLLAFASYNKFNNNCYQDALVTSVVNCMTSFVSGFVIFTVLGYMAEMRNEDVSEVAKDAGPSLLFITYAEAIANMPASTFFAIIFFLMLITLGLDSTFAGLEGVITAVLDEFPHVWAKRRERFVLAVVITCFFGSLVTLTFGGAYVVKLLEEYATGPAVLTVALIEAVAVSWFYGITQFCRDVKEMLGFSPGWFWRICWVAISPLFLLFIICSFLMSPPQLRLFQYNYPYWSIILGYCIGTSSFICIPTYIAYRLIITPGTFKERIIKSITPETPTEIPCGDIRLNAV
Description: Displacement of [3H]paroxetine from 5HTT

Mus musculus [35] = assay: Locomotor activity in ip dosed CD1 mouse in peak hour; assay type: functional
Mus musculus [36] = assay: Locomotor activity in CD1 mouse assessed as stimulation at 0.1 mg/kg, ip after 3 hrs relative to control; assay type: functional; details: route intraperitoneal
Mus musculus [37] = assay: Activity in CD1 mouse assessed as stereotypy at 1 mg/kg, ip after 4 hrs; assay type: functional, organism-based; set-up: dose 1 mg/kg
Rattus norvegicus [38] = assay: Drug discrimination effect in CD Albino rat assessed as percent of rat choosing cocaine lever at 0.17 mg/kg, ip; assay type: functional; details: route intraperitoneal
Mus musculus [39] = assay: Locomotor activity in CD1 mouse assessed as stimulation at 0.3 mg/kg, ip after 4 hrs relative to control; assay type: functional; details: route intraperitoneal
Mus musculus [40] = assay: Locomotor activity in CD1 mouse assessed as stimulation at 0.1 mg/kg, ip after 4 hrs relative to control; assay type: functional; details: route intraperitoneal
Rattus norvegicus [41] = assay: Drug discrimination effect in CD Albino rat assessed as percent of rat choosing cocaine lever at 0.1 mg/kg, ip; assay type: functional; details: route intraperitoneal
Mus musculus [42] = assay: Activity in CD1 mouse assessed as stereotypy at 10 mg/kg, ip after 4 hrs; assay type: functional, organism-based; set-up: dose 10 mg/kg
Mus musculus [43] = assay: Locomotor activity in CD1 mouse assessed as stimulation at 0.1 mg/kg, ip after 1 hr relative to control; assay type: functional; details: route intraperitoneal
Mus musculus [44] = assay: Locomotor activity in CD1 mouse assessed as stimulation at 0.3 mg/kg, ip after 1 hr relative to control; assay type: functional; details: route intraperitoneal
Mus musculus [45] = assay: Locomotor activity in CD1 mouse assessed as stimulation at 0.3 mg/kg, ip after 2 hrs relative to control; assay type: functional; details: route intraperitoneal
Rattus norvegicus [46] = assay: Drug discrimination effect in CD Albino rat assessed as percent of rat choosing cocaine lever at 0.3 mg/kg, ip; assay type: functional; details: route intraperitoneal
Mus musculus [47] = assay: Activity in CD1 mouse assessed as hyperactivity at 1 mg/kg, ip after 4 hrs; assay type: functional, organism-based; set-up: dose 1 mg/kg
Mus musculus [48] = assay: Activity in CD1 mouse assessed as stereotypy at 100 mg/kg, ip after 4 hrs; assay type: functional, organism-based; set-up: dose 100 mg/kg
Mus musculus [49] = assay: Locomotor activity in CD1 mouse assessed as stimulation at 0.1 mg/kg, ip after 2 hrs relative to control; assay type: functional; details: route intraperitoneal
Mus musculus [50] = assay: Locomotor activity in CD1 mouse assessed as stimulation at 0.3 mg/kg, ip after 3 hrs relative to control; assay type: functional; details: route intraperitoneal
Mus musculus [51] = assay: Locomotor activity in CD1 mouse assessed as stimulation at 0.03 mg/kg, ip after 3 hrs relative to control; assay type: functional; details: route intraperitoneal
Mus musculus [52] = assay: Activity in CD1 mouse assessed as circling at 10 mg/kg, ip after 4 hrs; assay type: functional, organism-based; set-up: dose 10 mg/kg
Rattus norvegicus [53] = assay: Drug discrimination effect in CD Albino rat assessed as percent of rat choosing cocaine lever at 1.7 mg/kg, ip; assay type: functional; details: route intraperitoneal
Mus musculus [54] = assay: Activity in CD1 mouse assessed as stimulation at 1 mg/kg, ip after 4 hrs; assay type: functional, organism-based; set-up: dose 1 mg/kg
Rattus norvegicus [55] = assay: Drug discrimination effect in CD Albino rat assessed as percent of rat choosing cocaine lever at 1 mg/kg, ip; assay type: functional; details: route intraperitoneal
Mus musculus [56] = assay: Activity in CD1 mouse assessed as hyperactivity at 10 mg/kg, ip after 4 hrs; assay type: functional, organism-based; set-up: dose 10 mg/kg

## COC(=O)[C@H]1C2CCC(C[C@@H]1c1ccc(C)cc1)N2C (stereo partly specified)
Mus musculus [1]
  Activity: Active
Mus musculus [2]
  Activity: Active
Mus musculus [3]
  Activity: 10%
Rattus norvegicus [4]
  Activity: 71%
Mus musculus [5]
  Activity: 6%
Rattus norvegicus [6]
  Activity: 43%
[7]
  IC50: 0.207 µM
Mus musculus [8]
  Activity: -23%
Mus musculus [9]
  Activity: Active
Rattus norvegicus [10]
  Activity: 71%
Mus musculus [11]
  Activity: 7%
Mus musculus [12]
  Activity: -76%
Rattus norvegicus [13]
  ED50: 7.11 mg/kg
Mus musculus [14]
  Activity: Active
Rattus norvegicus [15]
  Activity: 13%
Mus musculus [16]
  Activity: -68%
Mus musculus [17]
  Activity: -1%
Mus musculus [18]
  Activity: -11%
Mus musculus [19]
  Activity: 39%
Mus musculus [20]
  Activity: 55%
[21]
  IC50: 2.23 µM
  Ki: 1.12 µM
Mus musculus [22]
  Activity: 17%
Mus musculus [23]
  Activity: Active
Mus musculus [24]
  Activity: Active
Mus musculus [25]
  Activity: 42%
Mus musculus [26]
  Activity: 39%
Mus musculus [27]
  Activity: -42%
Mus musculus [28]
  Activity: 20%
Mus musculus [29]
  Activity: 24%
Rattus norvegicus [30]
  Activity: 100%

## COC(=O)[C@@H]1C2CCC(C[C@@H]1c1ccc(Br)cc1)N2C (stereo partly specified)
Mus musculus [31]
  Activity: -30%
Mus musculus [32]
  Activity: -43%
Mus musculus [33]
  Activity: -39%
[34]
  IC50: 0.0106 µM
  Ki: 0.00096 µM
Mus musculus [35]
  ED50: 0.1 mg/kg
[7]
  IC50: 0.0017 µM
Mus musculus [36]
  Activity: 81%
Mus musculus [37]
  Activity: Active
Rattus norvegicus [38]
  Activity: 50%
Mus musculus [39]
  Activity: 834%
Mus musculus [40]
  Activity: 116%
Rattus norvegicus [41]
  Activity: 14%
Mus musculus [12]
  Activity: 35%
Rattus norvegicus [13]
  ED50: 0.17 mg/kg
Mus musculus [42]
  Activity: Active
Mus musculus [43]
  Activity: -38%
Mus musculus [16]
  Activity: 656%
Mus musculus [44]
  Activity: 259%
Mus musculus [45]
  Activity: 598%
Rattus norvegicus [46]
  Activity: 100%
Mus musculus [47]
  Activity: Active
Mus musculus [48]
  Activity: Active
Mus musculus [23]
  Activity: Active
Mus musculus [49]
  Activity: 29%
Mus musculus [26]
  Activity: 302%
Mus musculus [50]
  Activity: 869%
Mus musculus [27]
  Activity: 258%
Mus musculus [51]
  Activity: 9%
Mus musculus [52]
  Activity: Active

## COC(=O)[C@@H]1C2CCC(C[C@H]1c1ccc(Br)cc1)N2C (stereo partly specified)
Mus musculus [3]
  Activity: 88%
Mus musculus [5]
  Activity: 686%
[34]
  IC50: 0.084 µM
  Ki: 0.0206 µM
Mus musculus [35]
  ED50: 6.6 mg/kg
Rattus norvegicus [6]
  Activity: 88%
[7]
  IC50: 0.0017 µM
Mus musculus [8]
  Activity: 518%
Mus musculus [11]
  Activity: 861%
Rattus norvegicus [53]
  Activity: 13%
Mus musculus [54]
  Activity: Active
Rattus norvegicus [55]
  Activity: 13%
Mus musculus [12]
  Activity: -26%
Rattus norvegicus [13]
  ED50: 2.98 mg/kg
Mus musculus [42]
  Activity: Active
Rattus norvegicus [15]
  Activity: 50%
Mus musculus [16]
  Activity: -12%
Mus musculus [17]
  Activity: 100%
Mus musculus [18]
  Activity: 457%
Mus musculus [19]
  Activity: 109%
Mus musculus [20]
  Activity: 781%
Mus musculus [48]
  Activity: Active
Mus musculus [22]
  Activity: 1275%
Mus musculus [23]
  Activity: Active
Mus musculus [25]
  Activity: 883%
Mus musculus [26]
  Activity: -56%
Mus musculus [27]
  Activity: 35%
Mus musculus [28]
  Activity: 60%
Mus musculus [56]
  Activity: Active
Mus musculus [29]
  Activity: 353%
